Results from patent publication US20250154109A1, “SODIUM CHANNEL BLOCKING COMPOUNDS, DERIVATIVES THEREOF, AND METHODS OF THEIR USE” (LATIGO BIOTHERAPEUTICS, INC, priority 2022, published 2025).
Where a name gives a salt, the structure may show the parent alone. Read-outs that look alike come from different tables or passages of the source.

Biological target: human Nav1.8 (Homo sapiens, UniProt Q9Y5Y9)
Test: SyncroPatch384PE assay (automated patch clamp)
Type: cell-based
Details: human Nav1.8/b3 CHO cells
Experimental: Compounds were tested on recombinant human Nav1.8/b3 stably transfected CHO cells using the SyncroPatch384PE system (Nanion Technologies), an automated patch clamp device. Cells were cultured at 37° C./5% CO2 in Ham's F-12 supplemented with 10% fetal bovine serum, 100 U/mL penicillin G sodium, […] streptomycin sulfate and selection antibiotics (0.01 mg/mL Blasticidin, 0.4 mg/mL Zeocin and 0.25 mg/mL Hygromycin). On the day of the recordings, cells in culture dishes were washed twice with Hank's Balanced Salt Solution (HBSS) and treated with Accutase for approximately 20 minutes. Immediately before use in the SynchroPatch384PE using an 8-hole NPC-384 chip, the cells were washed in HBSS to remove the Accutase and re-suspended in extracellular solution. All experiments were performed at ambient temperature. Intracellular solution contained (mM): CsCl, 50; CsF, 90; MgCl2, 5; EGTA, 1; HEPES, 10; pH adjusted to 7.2 with CsOH. Extracellular solution contained (mM): NaCl, 137; KCl, 4.0; CaCl2), 3.8; MgCl2, 1; HEPES, 10; Glucose, 10; pH adjusted to 7.4 with NaOH. 100 nM tetrodotoxin (TTX) was added to the extracellular solution to block endogenous TTX-sensitive sodium currents.
Compounds were tested in quadruplicate in 0.3% DMSO and 0.03% pluronic Acid. Compounds were diluted 1:3.33 in extracellular solution to create an 8-point concentration response curve. Each plate contained a historical positive control and up to ten compounds. 300 μM tetracaine and 0.3% DMSO+0.03% pluronic acid were used as high and low controls respectively.
Whole cell patch clamp recordings were conducted according to Nanion's standard procedure for SyncroPatch384PE®. Cells were held at a holding potential of −120 mV. A depolarization step to 10 mV for 30 ms was applied (P1 measurement), followed by a hyperpolarization step to −100 mV for 100 ms. An inactivation step at −35 mV for 10 sec was applied before stepping to −100 mV for 20 ms, followed by a step to 10 mV for 30 ms (P2 measurement) and then back to −100 mV for 30 ms. Sweep interval was 15 sec. Following establishment of the whole-cell configuration in extracellular solution, cells were washed in extracellular solution containing 0.3% DMSO and 0.03% pluronic acid to stabilize the baseline current. Compounds were then applied by the SynchroPatch384 PE system into each well and the current was recorded for five minutes in extracellular solution, followed by application of tetracaine to achieve full block at the end of experiment. The potency of the compounds was assessed on two read-outs, resting state block (P1 measurement) or inactivated state block (P2 measurement) to obtain IC50 values. Values were normalized to high (tetracaine) and low (DMSO+pluronic acid) controls.
Examples 1 to 219 and Examples 225 to 236 are assayed using SyncroPatch384PE assay described above.

[1] = inactivated state block (P2 measurement), read-out: P2 IC50
[2] = resting state block (P1 measurement), read-out: P1 IC50

Sequence of human Nav1.8 (Q9Y5Y9 whole entry): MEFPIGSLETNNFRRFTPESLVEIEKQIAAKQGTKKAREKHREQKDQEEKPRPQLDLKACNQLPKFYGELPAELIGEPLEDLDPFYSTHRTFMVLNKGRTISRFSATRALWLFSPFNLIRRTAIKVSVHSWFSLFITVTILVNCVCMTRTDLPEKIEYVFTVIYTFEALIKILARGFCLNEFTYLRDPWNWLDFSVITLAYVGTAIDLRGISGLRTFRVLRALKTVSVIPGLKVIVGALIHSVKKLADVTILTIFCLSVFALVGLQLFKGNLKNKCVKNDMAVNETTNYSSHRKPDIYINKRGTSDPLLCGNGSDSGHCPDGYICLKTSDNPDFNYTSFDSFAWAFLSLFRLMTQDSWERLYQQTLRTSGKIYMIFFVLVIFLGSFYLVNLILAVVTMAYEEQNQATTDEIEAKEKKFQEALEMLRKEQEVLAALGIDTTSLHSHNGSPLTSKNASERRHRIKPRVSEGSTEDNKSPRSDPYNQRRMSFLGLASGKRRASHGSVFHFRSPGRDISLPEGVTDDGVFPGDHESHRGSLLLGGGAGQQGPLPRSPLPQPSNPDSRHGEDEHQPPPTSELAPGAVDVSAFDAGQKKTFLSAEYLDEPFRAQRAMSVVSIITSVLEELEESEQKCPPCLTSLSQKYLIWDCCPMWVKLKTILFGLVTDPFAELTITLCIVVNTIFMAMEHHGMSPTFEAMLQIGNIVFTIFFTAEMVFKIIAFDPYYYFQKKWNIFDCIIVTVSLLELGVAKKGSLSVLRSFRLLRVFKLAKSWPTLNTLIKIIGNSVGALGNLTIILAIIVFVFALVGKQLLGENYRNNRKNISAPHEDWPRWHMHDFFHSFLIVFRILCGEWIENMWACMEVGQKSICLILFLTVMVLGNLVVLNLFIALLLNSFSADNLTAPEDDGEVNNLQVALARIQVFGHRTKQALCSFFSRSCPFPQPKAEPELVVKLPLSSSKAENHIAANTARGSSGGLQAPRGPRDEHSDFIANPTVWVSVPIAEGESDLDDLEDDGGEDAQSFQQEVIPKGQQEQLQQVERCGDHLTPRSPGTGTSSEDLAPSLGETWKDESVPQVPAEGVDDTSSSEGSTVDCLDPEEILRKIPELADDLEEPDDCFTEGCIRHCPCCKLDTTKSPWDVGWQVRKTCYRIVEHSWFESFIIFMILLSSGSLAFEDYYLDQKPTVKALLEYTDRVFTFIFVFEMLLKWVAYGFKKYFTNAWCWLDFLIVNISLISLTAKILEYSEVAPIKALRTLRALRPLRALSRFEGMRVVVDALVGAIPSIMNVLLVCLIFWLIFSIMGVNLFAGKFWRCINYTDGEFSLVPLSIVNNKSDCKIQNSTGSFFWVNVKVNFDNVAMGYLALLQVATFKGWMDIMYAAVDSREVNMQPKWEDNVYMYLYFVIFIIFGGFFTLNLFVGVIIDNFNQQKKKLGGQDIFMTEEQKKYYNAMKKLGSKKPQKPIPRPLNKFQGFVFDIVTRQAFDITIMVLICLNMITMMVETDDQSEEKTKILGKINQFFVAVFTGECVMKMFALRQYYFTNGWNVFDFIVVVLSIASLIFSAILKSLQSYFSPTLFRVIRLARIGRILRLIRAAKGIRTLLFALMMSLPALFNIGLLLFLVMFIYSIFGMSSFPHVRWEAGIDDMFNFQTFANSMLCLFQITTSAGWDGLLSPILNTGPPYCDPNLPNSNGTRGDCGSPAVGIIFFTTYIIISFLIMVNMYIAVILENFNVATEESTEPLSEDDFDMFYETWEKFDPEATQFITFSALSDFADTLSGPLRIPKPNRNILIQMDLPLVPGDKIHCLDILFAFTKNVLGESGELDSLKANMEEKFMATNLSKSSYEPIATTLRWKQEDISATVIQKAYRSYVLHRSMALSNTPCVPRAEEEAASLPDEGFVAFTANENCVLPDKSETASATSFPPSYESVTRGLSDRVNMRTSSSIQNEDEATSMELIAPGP

`C[S@@](=N)(=O)c1cc(NC(=O)c2cc(Cl)c(C(F)(F)F)cc2N2CCO[C@@H](C(F)(F)F)C2)ccn1` [Example 217, 5-chloro-N-(2-((R)—S-methylsulfonimidoyl)pyridin-4-yl)-4-(trifluoromethyl)-2-((R)-2-(trifluoromethyl)morpholino)benzamide] was tested, and the IC50 [1] was 0.05 to 0.1 µM and the IC50 [2] was 0.05 to 0.1 µM.

`Cc1c(N2CC3(COC3)C2)nnc(N2CCCC(F)(F)CC2)c1C(=O)Nc1cccc([S@](C)(=N)=O)c1` [Example 140, (R)-3-(4,4-difluoroazepan-1-yl)-5-methyl-N-(3-(S-methylsulfonimidoyl)phenyl)-6-(2-oxa-6-azaspiro[3.3]heptan-6-yl)pyridazine-4-carboxamide] gave an IC50 [1] greater than 0.2 µM and an IC50 [2] greater than 0.2 µM.

Work on `Cc1c(-c2ccccc2)cnc(N2CCCC(F)(F)CC2)c1C(=O)Nc1cccc([S@](C)(=N)=O)c1` [Example 122, (R)-2-(4,4-difluoroazepan-1-yl)-4-methyl-N-(3-(S-methylsulfonimidoyl)phenyl)-5-phenylnicotinamide] yielded an IC50 [1] of no more than 0.005 µM and an IC50 [2] of no more than 0.005 µM.

In the case of `Cc1c(-c2ccn(C)n2)cnc(N2CCCC(F)(F)CC2)c1C(=O)Nc1cccc(S(C)(=N)=O)c1` (stereo not drawn) [Example 89, 2-(4,4-difluoroazepan-1-yl)-4-methyl-5-(1-methyl-1H-pyrazol-3-yl)-N-(3-(S-methylsulfonimidoyl)phenyl)nicotinamide], the IC50 [1] is reported as 0.1 to 0.2 µM and the IC50 [2] is reported as 0.1 to 0.2 µM.

`C[S@@](=N)(=O)c1cccc(NC(=O)c2c(N3CCCC(F)(F)CC3)ncc(Cl)c2F)c1` [Example 226, (R)-5-chloro-2-(4,4-difluoroazepan-1-yl)-4-fluoro-N-(3-(S-methylsulfonimidoyl)phenyl)nicotinamide] gave an IC50 [1] of no more than 0.005 µM and an IC50 [2] of no more than 0.005 µM.

For `Cc1c(-c2ccc(C#N)cc2)cnc(N2CCCC(F)(F)CC2)c1C(=O)Nc1cccc([S@](C)(=N)=O)c1` [Example 49, (R)-5-(4-cyanophenyl)-2-(4,4-difluoroazepan-1-yl)-4-methyl-N-(3-(S-methylsulfonimidoyl)phenyl)nicotinamide], the IC50 [1] was no more than 0.005 µM and the IC50 [2] was no more than 0.005 µM.

Work on `Cc1c(Cl)c(C(F)(F)F)nc(N2CCCC(F)(F)CC2)c1C(=O)Nc1cccc(S(C)(=N)=O)c1` (stereo not drawn) [Example 41, 5-Chloro-2-(4,4-difluoroazepan-1-yl)-4-methyl-N-(3-(S-methylsulfonimidoyl)phenyl)-6-(trifluoromethyl)nicotinamide] yielded an IC50 [1] of no more than 0.005 µM and an IC50 [2] of no more than 0.005 µM.

Compound `Cc1c(C#N)cnc(N2CCCC(F)(F)CC2)c1C(=O)Nc1ccnc([S@](C)(=N)=O)c1` [Example 201, (R)-5-cyano-2-(4,4-difluoroazepan-1-yl)-4-methyl-N-(2-(S-methylsulfonimidoyl)pyridin-4-yl)nicotinamide] has an IC50 [1] of 0.005 to 0.05 µM and an IC50 [2] of 0.005 to 0.05 µM.

With `Cc1c(C(F)(F)F)nnc(N2CCCC(F)(F)CC2)c1C(=O)Nc1ccnnc1` [Example 31, 3-(4,4-Difluoroazepan-1-yl)-5-methyl-N-(pyridazin-4-yl)-6-(trifluoromethyl)pyridazine-4-carboxamide] the IC50 [1] was greater than 0.2 µM and the IC50 [2] was greater than 0.2 µM.

`Cc1c(-c2cccc(F)c2)cnc(N2CCCC(F)(F)CC2)c1C(=O)Nc1cccc(S(C)(=N)=O)c1` (stereo not drawn) [Example 82, 2-(4,4-difluoroazepan-1-yl)-5-(3-fluorophenyl)-4-methyl-N-(3-(S-methylsulfonimidoyl)phenyl)nicotinamide] showed an IC50 [1] of no more than 0.005 µM and an IC50 [2] of no more than 0.005 µM.

For `Cc1c(-c2cnn(C)c2)cnc(N2CCCC(F)(F)CC2)c1C(=O)Nc1cccc([S@@](C)(=O)=NC(=O)C(C)(C)N)c1` [Example 52, (R)-N-(3-(N-(2-amino-2-methylpropanoyl)-S-methylsulfonimidoyl)phenyl)-2-(4,4-difluoroazepan-1-yl)-4-methyl-5-(1-methyl-1H-pyrazol-4-yl)nicotinamide formate], the IC50 [1] was 0.005 to 0.05 µM and the IC50 [2] was 0.005 to 0.05 µM.

In the case of `Cc1c(-c2cnn(C)c2)cnc(N2CCCC(F)(F)CC2)c1C(=O)Nc1cccc(S(=N)(N)=O)c1` (stereo not drawn) [Example 165, 2-(4,4-difluoroazepan-1-yl)-4-methyl-5-(1-methyl-1H-pyrazol-4-yl)-N-(3-sulfamidimidoylphenyl)nicotinamide], the IC50 [1] is reported as 0.005 to 0.05 µM and the IC50 [2] is reported as 0.005 to 0.05 µM.
